# Measurements reported in patent US11597721B2, “Heterocyclic compounds comprising pyridine useful as modulators of IL-12, IL-23 and/or IFNα responses” (BRISTOL-MYERS SQUIBB COMPANY, priority 2018, dated 2023).
# Test system: IFNα-Induced STAT Phosphorylation
# Assay: IFNα-Induced STAT Phosphorylation in Human Whole Blood
# Assay type: cell-based
# Details: Homo sapiens, 1 h compound incubation, 1000 U/mL recombinant human IFNα A/D for 15 min, pSTAT5 in CD3 positive population, read-out: LE Human WB IFNα-Induced Stat Phosph. (IC50)
# Excerpt: IFNα-Induced STAT Phosphorylation in Human Whole Blood
# The amount of pSTAT5 expression was quantitated by median fluorescence intensity after gating on the CD3 positive population.
row,IC50 [nM],SMILES
1,30,"[2H]C([2H])([2H])NC(=O)c1nnc(Nc2ccc(OCC)nn2)cc1Nc1nccc(-c2ncn(C)n2)c1OC [Example 36, 6-[(6-ethoxypyridazin-3-yl)amino]-4-{[3-methoxy-4-(1-methyl-1H-1,2,4-triazol-3-yl)pyridin-2-yl]amino}-N—(^2H3)methylpyridazine-3-carboxamide]"
2,90,"[2H]C([2H])([2H])NC(=O)c1nnc(Nc2cc(C)n(C)n2)cc1Nc1nccc(-c2cnc(C(=O)N(C)C)cn2)c1OC [Example 91, 6-((1,5-Dimethyl-1H-pyrazol-3-yl)amino)-4-((4-(5-(dimethylcarbamoyl)pyrazin-2-yl)-3-methoxypyridin-2-yl)amino)-N-(methyl-d3)pyridazine-3-carboxamide]"
3,90,"[2H]C([2H])([2H])NC(=O)c1cnc(NC(=O)CC2CC2)cc1Nc1nccc(-c2noc(C)n2)c1OC [Example 44, 6-(2-cyclopropylacetamido)-4-{[3-methoxy-4-(5-methyl-1,2,4-oxadiazol-3-yl)pyridin-2-yl]amino}-N—(^2H3)methylpyridine-3-carboxamide]"
4,30,"[2H]C([2H])([2H])NC(=O)c1cnc(NC(=O)C2CC2)cc1Nc1nccc(-c2noc(C)n2)c1OC [Example 41, 6-cyclopropaneamido-4-{[3-methoxy-4-(5-methyl-1,2,4-oxadiazol-3-yl)pyridin-2-yl]amino}-N—(^2H3)methylpyridine-3-carboxamide]"
5,300,"[2H]C([2H])([2H])NC(=O)c1nnc(Nc2cc(C)ccn2)cc1Nc1nccc(-c2noc(CN(C)S(C)(=O)=O)n2)c1OC [Example 61, 4-[(3-methoxy-4-{5-[(N-methylmethanesulfonamido)methyl]-1,2,4-oxadiazol-3-yl}pyridin-2-yl)amino]-N—(^2H3)methyl-6-[(4-methylpyridin-2-yl)amino]pyridazine-3-carboxamide]"
6,20,"[2H]C([2H])([2H])NC(=O)c1cnc(NC(=O)C2CC2)cc1Nc1nccc(-c2noc(COC(C)C)n2)c1OC [Example 47, 6-cyclopropaneamido-4-[(3-methoxy-4-{5-[(propan-2-yloxy)methyl]-1,2,4-oxadiazol-3-yl}pyridin-2-yl)amino]-N—(^2H3)methylpyridine-3-carboxamide]"
7,1420,"[2H]C([2H])([2H])NC(=O)c1nnc(NC(=O)CC(C)C)cc1Nc1nccc(-c2noc(COC)n2)c1OC [Example 68, 4-({3-methoxy-4-[5-(methoxymethyl)-1,2,4-oxadiazol-3-yl]pyridin-2-yl}amino)-N—(^2H3)methyl-6-(3-methylbutanamido)pyridazine-3-carboxamide]"
8,60,"[2H]C([2H])([2H])NC(=O)c1nnc(Nc2ccn(C)n2)cc1Nc1nccc(-c2cnc(C(=O)N(C)C)cn2)c1OC [Example 90, 4-((4-(5-(Dimethylcarbamoyl)pyrazin-2-yl)-3-methoxypyridin-2-yl)amino)-N-(methyl-d3)-6-((1-methyl-1H-pyrazol-3-yl)amino)pyridazine-3-carboxamide]"
9,580,"[2H]C([2H])([2H])NC(=O)c1nnc(Nc2cc(C)ccn2)cc1Nc1nccc(-c2noc(CN3CCOCC3)n2)c1OC [Example 42, 4-((3-methoxy-4-(5-(morpholinomethyl)-1,2,4-oxadiazol-3-yl)pyridin-2-yl)amino)-N-trideuteromethyl-6-((4-methylpyridin-2-yl)amino)pyridazine-3-carboxamide]"
10,240,"[2H]C([2H])([2H])NC(=O)c1nnc(NC(=O)CC(C)C)cc1Nc1nccc(-c2noc(CN(C)S(C)(=O)=O)n2)c1OC [Example 70, 4-[(3-methoxy-4-{5-[(N-methylmethanesulfonamido)methyl]-1,2,4-oxadiazol-3-yl}pyridin-2-yl)amino]-N—(^2H3)methyl-6-(3-methylbutanamido)pyridazine-3-carboxamide]"
11,120,"[2H]C([2H])([2H])NC(=O)c1nnc(Nc2cc(C)c(F)cn2)cc1Nc1nccc(-c2ncn(C)n2)c1OC [Example 16, 6-[(5-fluoro-4-methylpyridin-2-yl)amino]-4-{[3-methoxy-4-(1-methyl-1H-1,2,4-triazol-3-yl)pyridin-2-yl]amino}-N—(^2H3)methylpyridazine-3-carboxamide]"
12,210,"[2H]C([2H])([2H])NC(=O)c1nnc(NC(=O)CC)cc1Nc1nccc(-c2noc(COC)n2)c1OC [Example 66, 4-({3-methoxy-4-[5-(methoxymethyl)-1,2,4-oxadiazol-3-yl]pyridin-2-yl}amino)-N—(^2H3)methyl-6-propanamidopyridazine-3-carboxamide]"
13,50,"[2H]C([2H])([2H])NC(=O)c1nnc(Nc2cc(CC)ccn2)cc1Nc1nccc(-c2ncn(C)n2)c1OC [Example 17, 6-[(4-ethylpyridin-2-yl)amino]-4-{[3-methoxy-4-(1-methyl-1H-1,2,4-triazol-3-yl)pyridin-2-yl]amino}-N—(^2H3)methylpyridazine-3-carboxamide]"
14,150,"[2H]C([2H])([2H])NC(=O)c1cnc(NC(=O)C2CC2)cc1Nc1nccc(-c2ccc(NC(=O)C3CC3)cn2)c1OC [Example 85, 6-(Cyclopropanecarboxamido)-4-((5-(cyclopropanecarboxamido)-3′-methoxy-[2,4′-bipyridin]-2′-yl)amino)-N-(methyl-d3)nicotinamide]"
15,10,"[2H]C([2H])([2H])NC(=O)c1nnc(Nc2ccc(N3CCOCC3)cn2)cc1Nc1nccc(-c2ncn(C)n2)c1OC [Example 38, 4-{[3-methoxy-4-(1-methyl-1H-1,2,4-triazol-3-yl)pyridin-2-yl]amino}-N—(^2H3)methyl-6-{[5-(morpholin-4-yl)pyridin-2-yl]amino}pyridazine-3-carboxamide]"
